From PubChem BioAssay (NCI)
Values joined by “and” are separate entries in the source; they are usually repeats but may differ in a detail not shown here. Equal entries are not always repeated.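 Following 48 hours of exposure in 96-well plates, responses at five concentrations were used to interpolate endpoints linearly. GI50 = concentration required for 50% inhibition of growth. TGI marks complete inhibition of growth.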

How the values were obtained:
Experiment in all cases: NCI tumour cell line growth inhibition, 48 h
[1] = system: TK-10 renal
[2] = system: HT29 colon
[3] = system: HOP-62 NSCLC
[4] = system: A498 renal
[5] = system: CAKI-1 renal
[6] = system: 786-0 renal
[7] = system: NCI-H522 lung
[8] = system: SF-539 CNS
[9] = system: BT-549 breast
[10] = system: NCI-H226 lung

Compound	GI50 [1]	TGI [1]	GI50 [2]	TGI [2]	GI50 [3]	TGI [3]	GI50 [4]	TGI [4]	GI50 [5]	TGI [5]	GI50 [6]	TGI [6]	GI50 [7]	TGI [7]	GI50 [8]	TGI [8]	GI50 [9]	TGI [9]	GI50 [10]	TGI [10]
COC(=O)[C@H](Cc1ccccc1)NC(=O)c1csc([C@@H](C[C@H](C(C)C)N(C)C(=O)[C@@H](NC(=O)[C@H]2CCCN2C)C2CC2)OC(C)=O)n1	4.18 µM	> 33.3 µM	0.14 µM	> 33.3 µM	0.831 µM	> 33.3 µM	1.53 µM	15.2 µM	0.793 µM	> 33.3 µM	0.746 µM	> 33.3 µM	0.0783 µM	> 33.3 µM	0.29 µM	1.55 µM	0.248 µM	7.85 µM	3.93 µM	> 33.3 µM
Fc1c[c-]c(-c2ccccn2)c(F)c1.[CH3-].[Pt+2].c1ccc(P(C[PH+](c2ccccc2)c2ccccc2)c2ccccc2)cc1	0.991 µM	3.39 µM	0.5 µM	3.73 µM	0.932 µM	3.71 µM	0.712 µM	1.58 µM	0.869 µM	1.96 µM	0.75 µM	1.65 µM	0.96 µM	3.16 µM	0.838 µM	1.62 µM	0.492 µM	1.49 µM	0.559 µM	2.09 µM
CCc1cccc(CC)c1/C=C/c1cncc(C(=O)NC)c1	> 18.2 µM	> 25 µM	8.79 µM	> 25 µM	9.88 µM	> 25 µM	8.68 µM	> 22.2 µM	9.62 µM	> 25 µM	14.2 µM	> 25 µM	8.82 µM	> 23.9 µM	8.58 µM	> 25 µM	8.95 µM	> 25 µM	17.2 µM	> 25 µM
Nc1ncnc2c1c(-c1ccc(Oc3ccccc3)cc1)nn2C[C@@H]1SSC[C@@H]1O	0.705 µM	2.75 µM	0.334 µM	1.7 µM	0.202 µM	1.24 µM	2.01 µM	5.35 µM	1.36 µM	5.01 µM	2.75 µM	11.1 µM	2.15 µM	6.98 µM	1.63 µM	26.3 µM	3.53 µM	13.4 µM	1.59 µM	3.92 µM
O=C(Nc1ccccc1O)c1ccc(CNC(=O)c2ccsc2Nc2ccnc(C(F)(F)F)c2)cc1	2.1 µM	9.33 µM	3.05 µM	12.6 µM	7.84 µM	> 100 µM	0.787 µM	3.01 µM	2.62 µM	9.96 µM	2.29 µM	5.34 µM	1.77 µM	6.86 µM	1.95 µM	18.1 µM	1.89 µM	5.04 µM	2.48 µM	30.9 µM
COc1cc2cc(Oc3ccc(NC(=O)c4cccc5c4OCCO5)cc3)c(C)nc2cc1OC	15.7 µM	> 100 µM	6.12 µM	> 100 µM	9.13 µM	94.6 µM	2.06 µM	68.4 µM	14.2 µM	> 100 µM	4.7 µM	> 100 µM	4.28 µM	45.1 µM	9.09 µM	> 100 µM	1.71 µM	4.42 µM	3.21 µM	21.2 µM
CC1(C)C2CCC13C(=O)C1OC3(C2)C2C(=O)c3c(O)cccc3C(=O)C12 (stereo unspecified)	0.979 µM	2.83 µM	3.58 µM	9.4 µM	16.1 µM	31.7 µM	1.89 µM	3.49 µM	1.4 µM	2.95 µM	0.319 µM	0.829 µM	3.2 µM	10.1 µM	2.64 µM	8.05 µM	1.2 µM	3.34 µM	7.68 µM	23.8 µM
CN(C)C/C=C/C(=O)Nc1ccc(C(=O)N2CCC[C@@H](Nc3ncc(Cl)c(-c4c[nH]c5ccccc45)n3)C2)cc1	2.31 µM	12.9 µM	0.285 µM	4.2 µM	0.432 µM	5.74 µM	0.192 µM	0.495 µM	1.65 µM	12.1 µM	1.96 µM	8.38 µM	0.0344 µM	0.228 µM	0.176 µM	0.65 µM	0.267 µM	1.22 µM	0.365 µM	3.2 µM
COc1ccccc1/C=C\C(=O)c1ccccc1	12.5 µM	25.2 µM	3.9 µM	17.3 µM	17.3 µM	32.6 µM	16.3 µM	35.7 µM	3.68 µM	12.2 µM	15 µM	28.4 µM	2.39 µM	7 µM	13.8 µM	26.7 µM	11 µM	23.3 µM	14.5 µM	29.8 µM
O=C(Cc1ccc(/C=C/C(=O)c2ncc[nH]2)cc1)Nc1ccc(C(F)(F)F)cc1	6.63 µM	13.8 µM	1.09 µM	4.47 µM	4.8 µM	12 µM	4.73 µM	10 µM	4.43 µM	9.47 µM	1.4 µM	6.07 µM	4.87 µM	12.4 µM	4.52 µM	9.25 µM	2.11 µM	8.28 µM	6.11 µM	13.1 µM
CN(C)CCCN1c2ccccc2Sc2ccc(Cl)cc21	9.64 µM and 6.76 µM	22.3 µM and 20.3 µM	3.26 µM and 3.96 µM	10.8 µM and 13.6 µM	14.6 µM and 11.7 µM	28.8 µM and 24.9 µM	10.5 µM and 3.46 µM	23.7 µM and 16.6 µM	6.78 µM and 6.91 µM	20.7 µM and 20.8 µM	3.81 µM and 12 µM	14.2 µM and 26.6 µM	2.74 µM and 2.79 µM	7.16 µM and 8.9 µM	3.22 µM and 11.4 µM	7.79 µM and 26 µM	10.9 µM and 11.2 µM	23.5 µM and 24.4 µM	13.1 µM and 15.2 µM	29.8 µM and 29.1 µM
c1ccc(CC(NCCNC(Cc2ccccc2)c2ccccc2)c2ccccc2)cc1 (stereo unspecified)	1.46 µM	4.21 µM	0.227 µM	0.567 µM	1.17 µM	2.86 µM	1.25 µM	2.66 µM	0.456 µM	2.44 µM	0.383 µM	1.59 µM	0.32 µM	1.06 µM	0.451 µM	1.64 µM	1.26 µM	3 µM	1.12 µM	2.79 µM
CN(C)C(=O)SC1=C(c2c(Cl)cccc2Cl)C(=O)c2ccccc21	3.5 µM	9.64 µM	3.47 µM	11.9 µM	18.7 µM	36.7 µM	16.1 µM	31.7 µM	2.15 µM	5.72 µM	10.3 µM	22.4 µM	1.74 µM	4.05 µM	9.01 µM	22.8 µM	9.78 µM	23.5 µM	19.9 µM	59.8 µM
COc1ccc2[nH]c(-c3ccccc3)cc2c1	> 100 µM	> 100 µM	> 100 µM	> 100 µM	> 100 µM	> 100 µM	20.8 µM	> 100 µM	> 100 µM	> 100 µM	> 100 µM	> 100 µM	73.9 µM	> 100 µM	> 100 µM	> 100 µM	> 100 µM	> 100 µM	> 100 µM	> 100 µM
Cc1ccc(-n2c3c(c4c(CN5CCOCC5)c(O)ccc42)CCc2ccccc2C3=O)cc1	> 100 µM	> 100 µM		0.241 µM	> 100 µM	> 100 µM	> 100 µM	> 100 µM	94.1 µM	> 100 µM	91.5 µM	> 100 µM	34.5 µM	> 100 µM	> 100 µM	> 100 µM	33.8 µM	> 100 µM	78.1 µM	> 100 µM
CC[C@H](C)[C@H](NC(=O)[C@H]1CCCCN1C)C(=O)N(C)[C@H](C[C@@H](OC(C)=O)c1nc(C(=O)N[C@@H](Cc2ccccc2)C[C@H](C)C(=O)OC)cs1)C(C)C	0.0254 µM		0.000251 µM and < 0.0025 µM	0.0137 µM and < 0.0025 µM	0.00052 µM and 0.0025 µM	> 25 µM	0.000267 µM and < 0.0025 µM	< 0.0025 µM	0.000792 µM		0.000366 µM and 0.0025 µM	14.8 µM	0.00028 µM and < 0.0025 µM	0.0135 µM and < 0.0025 µM	0.000482 µM and < 0.0025 µM	0.00437 µM and < 0.0025 µM	0.000385 µM and < 0.0025 µM	0.0169 µM and < 0.0025 µM	0.00234 µM and < 0.0025 µM	< 0.0025 µM
Cc1n(Cc2ccc3ccccc3c2)c(Cl)c(Cl)[n+]1Cc1ccc2ccccc2c1	1.79 µM	3.53 µM	1.76 µM	4.12 µM	1.79 µM	3.81 µM	1.56 µM	4.57 µM	1.85 µM	4.67 µM	1.71 µM	3.14 µM	1.52 µM	3.9 µM	1.62 µM	3.08 µM	1.65 µM	3.17 µM	2.48 µM	6.97 µM
CC[C@@]1(O)C(=O)OCc2c1cc1n(c2=O)Cc2cc3c(N)cccc3nc2-1		38.2 µM	0.0774 µM	> 30.1 µM	0.00637 µM	0.0489 µM	0.0896 µM	0.611 µM	0.00849 µM	0.858 µM	0.0048 µM	0.0457 µM	0.0234 µM	1.35 µM	0.00511 µM	0.0184 µM	0.0394 µM	5.26 µM	0.0179 µM	0.105 µM
Cn1cc(CO)c2ccccc21	> 100 µM	> 100 µM	30.2 µM	> 100 µM	73.8 µM	> 100 µM	17.6 µM	73.1 µM	18.3 µM	> 100 µM	> 100 µM	> 100 µM	23.4 µM	> 100 µM	40.6 µM	> 100 µM	53.7 µM	> 100 µM	64.1 µM	> 100 µM
